Data from patent US10369134B2, “Nonracemic mixtures and uses thereof” (Sunovion Pharmaceuticals Inc., priority 2017, dated 2019).

What was measured:
Assay type in all cases: in vivo
healthy subjects = test: REM suppression polysomnography (PSG) study of (R)-amisulpride; conditions: human; for decrease in the time spent in REM sleep / reduction of the portion of the night spent in REM: range is 90% confidence interval
Procedure: REM suppression was the biomarker used to determine clinically-significant levels of 5-HT7 antagonism and its pharmacodynamics. REM suppression was assessed by total time in minutes spent in REM sleep and by the latency in minutes to REM sleep. […] REM suppression in human volunteers is an established translational biomarker useful to identify doses for antidepressant effects in patients.
The primary endpoint was REM sleep suppression as determined at post dose time points in the measures of latency to REM sleep, REM sleep time in minutes, and percent decrease in REM sleep time relative to total sleep time.
The results presented in Tables 6A-6C were determined from an analysis of the date based on a linear mixed model with terms for treatment, period, and treatment sequence as fixed effects, respective baseline PSG value as a continuous covariate, and treatment-by-baseline PSG interaction, and subject nested within sequence as a random effect, the Kenward and Roger correction for the degrees of freedom and an unstructured covariance structure to model the intrasubject correlation. The abbreviations used in Tables 6A-6C are as follows: PSG=polysomnography; CI=confidence interval; LS=least-squares; REM=rapid eye movement; SE=standard error.

freely moving rats = test: Sleep study of 85:15 (R:S-amisulpride) and racemic amisulpride (EEG/EMG); conditions: rat, p.o., R-amisulpride content of the total dose
Procedure: Groups in this study were as follows. Test compound was administered to rats in a cross-over design.
Vehicle or fixed ratio amisulpride dosing solutions were orally administered 10 min before the beginning of light phase (light phase: 10:00 AM to 10:00 PM). The individual dosing volume was 4 mL/kg. The individual dosing volume was calculated based on the animals' body weight measured on each experimental day. At least 1-week wash-out period after each treatment was provided.
The R-amisulpride and S-amisulpride were separately weighed. […]
A radio transmitter was implanted intraperitoneally in each anesthetized animal (sodium pentobarbital, 32.4 mg/kg, i.p. and medetomidine hydrochloride, 0.5 mg/kg, i.p.). […] Electromyograms (EMG) were recorded from the dorsal neck muscle. […] EEG/EMG was recorded in the home cages in a soundproof box using Dataquest A.R.T. software (Data Science International, New Brighton, Minn., USA) at a sampling rate of 500 Hz. […]
All data were expressed as a mean±SEM. Difference between 85/15 and 50/50 amisulpride at each dose in each sleep architecture (i.e. REM sleep duration, NREM sleep duration, and WAKE duration) during the first 4 hours after administration were assessed by a repeated measures one-way ANOVA, followed by post-hoc Bonferroni multiple comparison test. […]

rat = test: Forced Swim test; conditions: 0.5 mg/kg i.p. at 24, 5 and 1 h before swim test, mean ± SE, vehicle 168±12
Procedure: The Forced Swim test (FST) is an indicator of the antidepressant-like activity of a test compound. The rat will swim before “giving up” and becoming immobile. A compound with antidepressant-like activity will decrease the time the rat is immobile.
The animals (n=90) were divided into five groups. […] In the training session, each animal was gently placed into the plastic cylinder containing 5.8 L of water set at 25±1° C. Fifteen minutes after the beginning of the training session, the animal was removed from the water. The dosing solutions were administered 15 minutes after finishing of the training.
The swim test was performed for 5 minutes in the same manner as the training session. In the swim test, the behavior of each animal was horizontally recorded using a video camera. After the swim test, animals were immediately sacrificed by inhalation of carbon dioxide.
The swim movies were handled in a blind manner to ensure that the person who measured the immobility time had no information on the treatment. An animal was judged to be immobile whenever it remained floating in the water without moving its body or forepaws except for the slight movement to maintain its posture. The total time for which the animal remained immobile was defined as the immobility time. An observer blinded to the doses measured the immobility times. The immobility time of each animal was measured to one decimal place and rounded to a whole number. Immobility time was expressed in units of seconds. In each series the means of immobility time were calculated and rounded to a whole number using. The mean and standard error (SE) for each group were calculated using the data obtained from three experimental series and rounded to a whole number. All results are represented as the mean±SE.
The data of imipramine were analyzed using t-test with a two-sided significance level of 5% (p<0.05).

CCN1CCC[C@@H]1CNC(=O)c1cc(S(=O)(=O)CC)c(N)cc1OC [(R)-amisulpride, R-4-Amino-N-[(1-ethyl-2-pyrrolidinyl)methyl]-5-(ethylsulfonyl)-2-methoxybenzamide]
decrease in REM sleep (healthy subjects; 340 mg (FIG. 15C)): about 20 minutes
decrease in REM sleep (healthy subjects; 600 mg (FIG. 15C)): about 30 minutes
subjects who reported adverse events (healthy subjects; of the 13 subjects dosed with 600 mg): 3 subjects
suppression of REM sleep (healthy subjects; single dose 600 mg): clinically meaningful and statistically significant suppression of REM sleep
vital signs and ECGs (healthy subjects; single oral dose): normal
Latency to REM Sleep, LS Mean Difference (SE) from placebo (healthy subjects; single oral dose 340 mg, n=20): 28.23 (9.82) Minutes
REM Percent, LS Mean Difference (SE) from placebo (healthy subjects; single oral dose 340 mg, n=20): −4.15 (1.09) %
REM Time, LS Mean Difference (SE) from placebo (healthy subjects; single oral dose 340 mg, n=20): −18.45 (4.91) Minutes
REM Percent, LS Mean (SE) (healthy subjects; single oral dose 340 mg, n=20, placebo 25.69 (0.92)): 21.55 (0.92) %
Latency to REM Sleep, LS Mean (SE) (healthy subjects; single oral dose 340 mg, n=20, placebo 77.03 (9.42)): 105.25 (9.42) Minutes
REM Time, LS Mean (SE) (healthy subjects; single oral dose 340 mg, n=20, placebo 110.05 (4.69)): 91.60 (4.69) Minutes
decrease in the time spent in REM sleep (healthy subjects; single oral dose 340 mg): 10 to 27 min
reduction of the portion of the night spent in REM (healthy subjects; single oral dose 340 mg): 2-6 percentage points
Latency to REM Sleep, LS Mean Difference (SE) from placebo (healthy subjects; single oral dose 600 mg, n=13): 20.30 (9.39) Minutes
REM Percent, LS Mean Difference (SE) from placebo (healthy subjects; single oral dose 600 mg, n=13): −6.24 (1.45) %
REM Time, LS Mean Difference (SE) from placebo (healthy subjects; single oral dose 600 mg, n=13): −31.39 (7.99) Minutes
REM Percent, LS Mean (SE) (healthy subjects; single oral dose 600 mg, n=13, placebo 24.30 (1.14)): 18.06 (1.14) %
Latency to REM Sleep, LS Mean (SE) (healthy subjects; single oral dose 600 mg, n=13, placebo 89.06 (7.71)): 109.35 (7.71) Minutes
REM Time, LS Mean (SE) (healthy subjects; single oral dose 600 mg, n=13, placebo 107.98 (5.65)): 76.59 (5.65) Minutes
decrease in the time spent in REM sleep (healthy subjects; single oral dose 600 mg): 18 to 45 min
reduction of the portion of the night spent in REM (healthy subjects; single oral dose 600 mg): 4-9 percentage points
tolerability (healthy subjects; single oral dose 340 or 600 mg): well tolerated
dose of R-amisulpride at which REM sleep suppression was saturated (freely moving rats): ≥ 50 mg/kg
immobility time (rat): 124 ± 12 s
